Target: T1, HSV-1 helicase–primase (HP) complex (UL5/UL52/UL8) (Human alphaherpesvirus 1 strain 17, UniProt P10189+P10236)
T1 sequence (P10189 1-882): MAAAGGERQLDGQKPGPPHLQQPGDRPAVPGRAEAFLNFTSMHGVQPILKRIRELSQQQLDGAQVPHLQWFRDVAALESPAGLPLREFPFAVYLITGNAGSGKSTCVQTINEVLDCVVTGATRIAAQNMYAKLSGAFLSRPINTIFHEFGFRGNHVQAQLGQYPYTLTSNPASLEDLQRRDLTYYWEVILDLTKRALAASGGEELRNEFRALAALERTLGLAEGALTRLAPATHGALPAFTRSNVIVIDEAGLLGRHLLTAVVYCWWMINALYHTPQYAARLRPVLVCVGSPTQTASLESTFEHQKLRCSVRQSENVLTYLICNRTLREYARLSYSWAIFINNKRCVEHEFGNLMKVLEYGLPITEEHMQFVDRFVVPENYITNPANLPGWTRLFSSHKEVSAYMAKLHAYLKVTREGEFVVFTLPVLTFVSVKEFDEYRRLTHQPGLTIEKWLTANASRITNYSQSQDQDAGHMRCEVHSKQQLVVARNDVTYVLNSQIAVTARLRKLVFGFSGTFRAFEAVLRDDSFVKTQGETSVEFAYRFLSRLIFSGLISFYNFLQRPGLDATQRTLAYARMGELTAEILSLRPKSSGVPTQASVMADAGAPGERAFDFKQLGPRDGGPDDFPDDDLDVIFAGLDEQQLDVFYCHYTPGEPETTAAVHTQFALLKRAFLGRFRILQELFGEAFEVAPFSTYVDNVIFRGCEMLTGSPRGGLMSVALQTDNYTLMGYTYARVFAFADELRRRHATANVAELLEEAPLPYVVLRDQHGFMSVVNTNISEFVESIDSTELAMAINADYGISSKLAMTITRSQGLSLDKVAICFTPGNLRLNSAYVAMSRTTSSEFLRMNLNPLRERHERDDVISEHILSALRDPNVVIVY
T1 sequence (P10236 1-1058): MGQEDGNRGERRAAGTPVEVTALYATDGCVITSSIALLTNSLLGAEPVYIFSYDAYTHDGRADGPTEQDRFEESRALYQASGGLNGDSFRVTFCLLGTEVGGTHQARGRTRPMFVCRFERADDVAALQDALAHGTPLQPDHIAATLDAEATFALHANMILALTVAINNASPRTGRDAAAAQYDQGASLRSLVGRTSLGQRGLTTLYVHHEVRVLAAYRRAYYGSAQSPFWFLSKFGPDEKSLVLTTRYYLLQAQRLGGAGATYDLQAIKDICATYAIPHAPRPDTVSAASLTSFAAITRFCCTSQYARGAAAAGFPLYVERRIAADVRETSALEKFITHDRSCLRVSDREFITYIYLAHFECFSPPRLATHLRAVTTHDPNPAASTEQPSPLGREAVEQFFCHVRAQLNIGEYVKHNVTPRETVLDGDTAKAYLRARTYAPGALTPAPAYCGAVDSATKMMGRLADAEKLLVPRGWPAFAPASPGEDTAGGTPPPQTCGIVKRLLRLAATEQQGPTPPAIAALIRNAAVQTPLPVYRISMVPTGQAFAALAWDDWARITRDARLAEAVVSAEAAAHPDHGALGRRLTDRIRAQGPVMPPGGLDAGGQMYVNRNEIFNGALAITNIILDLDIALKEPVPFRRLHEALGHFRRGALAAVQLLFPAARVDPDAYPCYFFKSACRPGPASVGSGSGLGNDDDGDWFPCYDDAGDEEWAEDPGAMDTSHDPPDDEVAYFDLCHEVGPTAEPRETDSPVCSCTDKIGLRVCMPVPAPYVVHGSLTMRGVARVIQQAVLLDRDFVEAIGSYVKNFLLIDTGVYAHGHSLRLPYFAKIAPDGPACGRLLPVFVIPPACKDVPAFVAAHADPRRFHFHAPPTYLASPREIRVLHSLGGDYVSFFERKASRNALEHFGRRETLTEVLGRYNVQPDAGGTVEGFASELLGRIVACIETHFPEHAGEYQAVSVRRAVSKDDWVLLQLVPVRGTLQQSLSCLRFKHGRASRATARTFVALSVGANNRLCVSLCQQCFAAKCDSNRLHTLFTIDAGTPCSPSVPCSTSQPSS
T1 sequence (P10192 1-750 partner): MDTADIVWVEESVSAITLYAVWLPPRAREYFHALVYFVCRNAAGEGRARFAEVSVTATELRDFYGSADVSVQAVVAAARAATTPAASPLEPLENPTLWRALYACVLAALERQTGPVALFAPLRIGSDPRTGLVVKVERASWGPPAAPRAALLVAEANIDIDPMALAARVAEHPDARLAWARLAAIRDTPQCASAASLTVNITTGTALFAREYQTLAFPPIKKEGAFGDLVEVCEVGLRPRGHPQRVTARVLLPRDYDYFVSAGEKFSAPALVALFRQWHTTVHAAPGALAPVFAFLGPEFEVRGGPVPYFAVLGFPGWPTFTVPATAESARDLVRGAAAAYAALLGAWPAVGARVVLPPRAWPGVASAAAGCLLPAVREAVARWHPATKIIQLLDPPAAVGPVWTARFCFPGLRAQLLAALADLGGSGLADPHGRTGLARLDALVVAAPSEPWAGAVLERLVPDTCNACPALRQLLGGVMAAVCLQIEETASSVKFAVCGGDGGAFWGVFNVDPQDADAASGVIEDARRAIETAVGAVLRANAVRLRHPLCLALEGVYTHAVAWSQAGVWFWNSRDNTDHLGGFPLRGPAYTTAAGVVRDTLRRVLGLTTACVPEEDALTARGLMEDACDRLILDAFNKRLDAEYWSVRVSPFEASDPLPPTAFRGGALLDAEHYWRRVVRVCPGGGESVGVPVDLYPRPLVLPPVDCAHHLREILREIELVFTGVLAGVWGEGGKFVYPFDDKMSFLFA
Assay: fluorescent forked-DNA unwinding
Assay type: biochemical

SMILES	IC50 [nM]
Cc1cccc(C)c1N(CC(=O)Nc1ccc(-c2ncon2)cc1)C(=O)C1CCS(=O)(=O)CC1 [AMNV, amenamevir]	3.5
Cc1nc(N(C)C(=O)Cc2ccc(-c3ccccn3)cc2)sc1S(N)(=O)=O [PTV, pritelivir]	11.1

From paper PMC12669039 (Nature Microbiology, 2025)
